# Measurements published in patent US11214803B2, “Modulators of YAP1 expression” (Ionis Pharmaceuticals, Inc., priority 2019, dated 2022).
# Marks after values point to notes of the source that are not given here. Strand notation (5' to 3'): a small letter for the sugar, then the base; units joined by * are phosphorothioate-linked, units joined directly phosphodiester-linked; [ ] holds rarer units or linkages, { } end groups; capitals alone tell only the bases. k = constrained ethyl (cEt); [5mC] = 5-methylcytosine; d = 2'-deoxy (DNA)
# System: Yap1 mRNA
# Experiment: Antisense inhibition of human Yap1 in A-431 cells by cEt gapmers, single dose (Example 4, RTS4814)
# Format: cell-based
# Details: Table 14; A-431 cells, 5,000 cells per well, free uptake, 2,000 nM, approximately 48 hours; RTS4814; normalized to RIBOGREEN; Yap1 mRNA relative to untreated control; * = targets amplicon region of primer probe set
# Procedure, shortened: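 Values are % UTC: Yap1 mRNA by quantitative RT-PCR, normalized to RIBOGREEN total RNA. Cells were exposed ~48 h to 2,000 nM oligonucleotide without transfection. Oligonucleotides were 16-nucleoside gapmers with three cEt nucleosides per wing, ten-deoxy gap, P=S linkages throughout.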
row,Substance,YAP1 (% UTC)
1,1075360 (kA*kG*kG*d[5mC]*dA*dA*d[5mC]*dA*dA*d[5mC]*dA*dT*d[5mC]*kT*kA*kA; antisense) [Compound 1075360],50 % UTC
2,1076256 (kT*kT*kA*dT*dT*dT*dA*dG*dG*d[5mC]*d[5mC]*d[5mC]*d[5mC]*kA*kT*kA; antisense) [Compound 1076256],4 % UTC
3,1076416 (kA*k[5mC]*k[5mC]*dG*dA*dA*dA*dT*dG*dA*dT*dA*d[5mC]*kT*kG*kA; antisense) [Compound 1076416],8 % UTC
4,1076192 (k[5mC]*kT*kA*d[5mC]*dA*dA*d[5mC]*d[5mC]*dT*dG*dG*dA*d[5mC]*kT*kT*kT; antisense) [Compound 1076192],34 % UTC
5,1074208 (antisense kG*kT*kG*d[5mC]*dA*d[5mC]*dG*dA*dT*d[5mC]*dT*dG*dA*kT*kG*k[5mC]) [Compound 1074208],96 % UTC
6,1074112 (kT*k[5mC]*k[5mC]*dA*dA*d[5mC]*dT*d[5mC]*d[5mC]*d[5mC]*dT*dT*dG*kA*k[5mC]*kG; antisense) [Compound 1074112],83 % UTC
7,1074656 (antisense kG*kA*k[5mC]*dT*dT*dA*dA*dT*dT*d[5mC]*dA*dA*dG*kA*kT*kT) [Compound 1074656],31 % UTC
8,1074496 (kA*kA*kT*dA*dA*d[5mC]*d[5mC]*dA*dT*d[5mC]*d[5mC]*d[5mC]*dA*kA*kG*k[5mC]; antisense) [Compound 1074496],69 % UTC
9,1074560 (antisense k[5mC]*k[5mC]*kA*dA*dT*d[5mC]*dG*dA*dG*dA*d[5mC]*dT*dT*kA*kA*kA) [Compound 1074560],3 % UTC

# Same assay, conditions: Table 15; A-431 cells, 5,000 cells per well, free uptake, 2,000 nM, approximately 48 hours; RTS4814; normalized to RIBOGREEN; Yap1 mRNA relative to untreated control; * = targets amplicon region of primer probe set
row,Substance,YAP1 (% UTC)
1,1075809 (kT*kA*kG*d[5mC]*dA*dA*dT*dA*dG*dA*dG*dT*dA*kA*k[5mC]*k[5mC]; antisense) [Compound 1075809],13 % UTC
2,1074689 (antisense k[5mC]*kT*k[5mC]*d[5mC]*d[5mC]*d[5mC]*d[5mC]*dT*dA*dA*dG*d[5mC]*dT*kA*kA*kA) [Compound 1074689],70 % UTC
3,1074497 (k[5mC]*kA*kA*dT*dA*dA*d[5mC]*d[5mC]*dA*dT*d[5mC]*d[5mC]*d[5mC]*kA*kA*kG; antisense) [Compound 1074497],26 % UTC
4,1074305 (antisense k[5mC]*kA*k[5mC]*d[5mC]*dT*dG*d[5mC]*d[5mC]*dG*dA*dA*dG*d[5mC]*kA*kG*kT) [Compound 1074305],64 % UTC
5,1075841 (kA*kT*kT*dT*dA*dG*dG*dT*dA*d[5mC]*dT*d[5mC]*dA*kG*kT*kA; antisense) [Compound 1075841],27 % UTC
6,1074273 (antisense k[5mC]*kT*kT*dA*dT*dG*dG*dT*dT*dT*dA*dT*dA*kT*kA*kG) [Compound 1074273],34 % UTC

# Same assay, conditions: Table 16; A-431 cells, 5,000 cells per well, free uptake, 2,000 nM, approximately 48 hours; RTS4814; normalized to RIBOGREEN; Yap1 mRNA relative to untreated control cells
row,Substance,YAP1 (% UTC)
1,1075554 (kT*kT*kG*d[5mC]*dA*dA*dT*dA*dG*dT*d[5mC]*dA*d[5mC]*k[5mC]*k[5mC]*kA; antisense) [Compound 1075554],56 % UTC
2,1074114 (kG*kA*kA*d[5mC]*dT*dT*dT*dT*dT*d[5mC]*d[5mC]*d[5mC]*dT*k[5mC]*k[5mC]*kA; antisense) [Compound 1074114],30 % UTC
3,1074658 (antisense kG*kG*k[5mC]*d[5mC]*dA*dT*dT*dT*d[5mC]*d[5mC]*d[5mC]*d[5mC]*d[5mC]*k[5mC]*kA*kG) [Compound 1074658],89 % UTC
4,1076322 (kA*kT*kT*dT*dA*d[5mC]*dA*dA*dG*dT*dG*dA*dG*k[5mC]*kA*k[5mC]; antisense) [Compound 1076322],21 % UTC
5,1074370 (antisense kT*kT*kG*dA*dT*dA*dG*dT*dA*dT*d[5mC]*dA*d[5mC]*k[5mC]*kT*kG) [Compound 1074370],8 % UTC
6,1074306 (antisense k[5mC]*k[5mC]*kT*d[5mC]*dA*d[5mC]*d[5mC]*dT*dG*d[5mC]*d[5mC]*dG*dA*kA*kG*k[5mC]) [Compound 1074306],107 % UTC
7,1076354 (kG*kA*kT*dT*dA*dA*dA*d[5mC]*dA*dT*dT*d[5mC]*dG*kG*kA*kT; antisense) [Compound 1076354],13 % UTC
8,1075234 (antisense kG*kT*kA*dA*dA*dT*dA*d[5mC]*dT*d[5mC]*dT*dA*dG*kT*kT*k[5mC]) [Compound 1075234],22 % UTC
9,1076482 (antisense k[5mC]*kT*kT*dT*dA*dG*dA*d[5mC]*dT*dA*dA*dG*dT*kA*kA*kG) [Compound 1076482],107 % UTC
10,1074978 (antisense kT*kT*kG*d[5mC]*d[5mC]*dA*dG*dT*dT*d[5mC]*dT*dT*dG*kT*kT*k[5mC]) [Compound 1074978],38 % UTC
11,1076514 (antisense k[5mC]*k[5mC]*kT*dT*dA*dG*dG*dA*dG*dA*dT*dG*d[5mC]*kA*k[5mC]*k[5mC]) [Compound 1076514],18 % UTC
12,1076194 (kT*kT*kT*dA*dA*dT*dA*d[5mC]*dA*d[5mC]*dA*dG*dG*kT*kT*k[5mC]; antisense) [Compound 1076194],22 % UTC

# Same assay, conditions: Table 17; A-431 cells, 5,000 cells per well, free uptake, 2,000 nM, approximately 48 hours; RTS4814; normalized to RIBOGREEN; Yap1 mRNA relative to untreated control cells
row,Substance,YAP1 (% UTC)
1,1074435 (kG*kA*k[5mC]*dT*dT*d[5mC]*dT*dA*dA*dG*dT*d[5mC]*dT*kG*kA*kG; antisense) [Compound 1074435],19* % UTC
2,1076355 (k[5mC]*kT*kA*d[5mC]*dA*dA*dA*dA*dG*dA*dG*d[5mC]*dT*kA*kT*kG; antisense) [Compound 1076355],92 % UTC
3,1076227 (kA*k[5mC]*kT*dT*dA*dT*dA*dA*dG*dG*d[5mC]*d[5mC]*dA*kG*k[5mC]*kA; antisense) [Compound 1076227],16 % UTC
4,1074211 (antisense k[5mC]*kT*kT*d[5mC]*d[5mC]*dG*dG*dA*dG*d[5mC]*d[5mC]*dT*d[5mC]*kA*kT*kG) [Compound 1074211],67 % UTC
5,1075779 (kG*kT*kA*dT*dT*dA*d[5mC]*dA*dA*dA*d[5mC]*dT*dG*kA*kT*kT; antisense) [Compound 1075779],28 % UTC
6,1075395 (kA*kT*kG*dA*dA*dT*dA*dA*dG*dT*dA*dT*dG*k[5mC]*k[5mC]*kA; antisense) [Compound 1075395],4 % UTC

# Same assay, conditions: Yap1 mRNA remaining as percent of untreated control; 3-10-3 cEt gapmers; A-431 cells; Table 36
row,Substance,YAP1 (% UTC)
1,1075670 (antisense kT*kA*kT*dA*dT*dA*dT*dG*dA*dT*dG*dG*dA*k[5mC]*kT*kG) [compound 1075670],39 % UTC
2,1076118 (k[5mC]*kG*kT*dA*dA*dA*dT*dT*dG*dA*dG*dG*d[5mC]*k[5mC]*k[5mC]*kA; antisense) [compound 1076118],45 % UTC
3,1076438 (kT*kA*kG*dG*dA*dA*dG*dA*dA*dT*dA*dG*d[5mC]*kA*kT*k[5mC]; antisense) [compound 1076438],13 % UTC
4,1075830 (kG*kA*kT*dG*dA*dA*d[5mC]*dA*d[5mC]*dT*d[5mC]*dA*dA*kT*kA*kG; antisense) [compound 1075830],12 % UTC
5,1075126 (k[5mC]*kT*kT*dA*dA*dA*dT*d[5mC]*dT*dT*dA*dG*d[5mC]*kA*kA*k[5mC]; antisense) [compound 1075126],20 % UTC
6,1074806 (kT*kT*kG*dT*dA*dG*d[5mC]*dA*dA*dA*dG*dT*d[5mC]*kA*k[5mC]*kT; antisense) [compound 1074806],8 % UTC
7,1074614 (DNA kT*k[5mC]*kA*dT*dA*dG*d[5mC]*dT*dT*dA*dT*dA*dT*kT*kG*kA; antisense) [compound 1074614],49 % UTC
8,1075798 (kA*kT*kT*dT*dA*dG*dA*dT*dA*dG*dT*dT*dA*k[5mC]*kT*kG; antisense) [compound 1075798],21 % UTC

# Same assay, conditions: Yap1 mRNA remaining as percent of untreated control; 3-10-3 cEt gapmers; A-431 cells; Table 37
row,Substance,YAP1 (% UTC)
1,1075831 (kT*kA*kT*dT*dA*dG*d[5mC]*d[5mC]*dT*dT*d[5mC]*dT*dA*kA*k[5mC]*k[5mC]; antisense) [compound 1075831],59 % UTC
2,1076151 (kT*kA*kT*dT*dT*dA*dT*dT*dA*dA*d[5mC]*dT*d[5mC]*kA*k[5mC]*kG; antisense) [compound 1076151],14 % UTC
3,1076375 (antisense kT*kA*kT*dA*dA*d[5mC]*dG*dG*dA*dT*dA*dT*dA*k[5mC]*kA*kA) [compound 1076375],22 % UTC
4,1075383 (antisense kA*kA*kT*dT*dA*dT*dT*dA*d[5mC]*d[5mC]*d[5mC]*dT*dA*k[5mC]*kT*k[5mC]) [compound 1075383],45 % UTC
5,1075959 (kG*kA*kT*dT*dA*dT*dT*dA*dT*dT*dG*d[5mC]*dA*kG*k[5mC]*kT; antisense) [compound 1075959],15 % UTC
6,1074647 (antisense k[5mC]*kA*kA*dA*dT*dT*dG*dA*dA*dG*dG*dG*d[5mC]*k[5mC]*kA*kA) [compound 1074647],27 % UTC

# Same assay, conditions: table after Table 37, headed TABLE 32 (gapmers targeting SEQ ID NO.: 3); A-431 cells, free uptake, 2,000 nM, approximately 48 hours, RTS4814
row,Substance,YAP1 (% UTC)
1,1074882 (kG*k[5mC]*kT*dA*dA*d[5mC]*dT*d[5mC]*d[5mC]*dT*dG*d[5mC]*d[5mC]*kG*kA*kA; antisense) [compound 1074882],73 % UTC
